Values after ≈ are worked out from the molar mass of the structure shown. Read-outs that look alike come from different tables or passages of the source.
How the values were obtained:
[1] = Particle size distribution of tebipenem pivoxil HBr batches by sieve method; format: physicochemical
E. coli [2] = experiment: Susceptibility of E. coli from urinary tract infections, 18 EU countries 2020 (STEWARD); format: cell-based
Procedure: The study assessed the prevalence of resistance and evaluated the activity of oral tebipenem (TBP) and comparators against EC from urinary tract infections.
Results were interpreted using EUCAST criteria. […] ESBL phenotypes were determined by CLSI criteria and sequenced to identify CTX-M-15 genotype and clonal complex ST131.

P. mirabilis = experiment: Broth microdilution against US UTI pathogens 2019-2020; format: cell-based; settings: for % susceptible; CLSI: cefuroxime: oral breakpoint
Procedure: (§1) This study assessed the in vitro activity of tebipenem and comparator agents against Enterobacterales (ENT) responsible for UTIs in the US during 2019-2020. A total of 3,576 ENT recovered from urine samples during the 2019-2020 STEWARD Surveillance Program were included in the study. Isolates were collected from medical centers in all 9 US Census Regions and were centrally tested for susceptibility by reference broth microdilution method. MIC interpretation was performed based on CLSI criteria.

[3] = system: Enterobacterales overproducing AmpC; experiment: Broth microdilution susceptibility of isolates overexpressing AmpC; format: cell-based
Procedure: (§2) Frozen-form broth microdilution panels were manufactured by JMI Laboratories and contained cation-adjusted Mueller-Hinton broth. Quality assurance was performed by sterility checks, colony counts, and testing CLSI recommended quality control reference strains.

E. coli [4] = experiment: Broth microdilution MIC against characterized subsets of UTI E. coli (2018-2020); format: cell-based
Text: Isolates were collected from medical centers in all 9 US Census Regions and tested by broth microdilution. MIC interpretation was based on CLSI. Isolates that met MIC criteria were subjected to genome sequencing, followed by screening of extended-spectrum b-lactamase (ESBL) genes and epidemiology typing (MLST).

Enterobacterales (ENT) = experiment: Broth microdilution against US UTI pathogens 2019-2020; format: cell-based; settings: All (3,567)
Procedure: as §1

E. coli [5] = experiment: as above; format: cell-based; settings: E. coli (2,339)
Procedure: as §1

K. pneumoniae = experiment: as above; format: cell-based; settings: K. pneumoniae (511)
Procedure: as §1

[6] = system: P. aeruginosa isolates that overproduced AmpC; experiment: Broth microdilution susceptibility of isolates overexpressing AmpC; format: cell-based; settings: P. aeruginosa (32)
Procedure: as §2

[7] = Enterobacterales (36), read-out: MIC50
[8] = Enterobacterales (36), read-out: MIC90

Br.C[C@@H](O)[C@H]1C(=O)N2C(C(=O)OCOC(=O)C(C)(C)C)=C(SC3CN(C4=NCCS4)C3)[C@H](C)[C@H]12 [Lot 1, Comil-ed]
particle size distribution, 45 um< [1]: 35% | particle size distribution, 75 um< [1]: 27% | particle size distribution, 106 um< [1]: 16% | particle size distribution, 150 um< [1]: 1% | particle size distribution, 300 um< [1]: 0% | particle size distribution, <45 um [1]: 21%

CC1(C)S[C@@H]2[C@H](/N=C/N3CCCCCC3)C(=O)N2[C@H]1C(=O)O [mecillinam]
MIC90 (E. coli [2]; Escherichia coli, all E. coli (764) from UTIs): > 8 µg/mL | Susceptibility rate (E. coli [2]; all E. coli, EUCAST criteria): 88.0%

Tebipenem pivoxil
MIC50 (P. mirabilis): 0.12 mg/L | MIC90 (P. mirabilis): 0.12 mg/L | concentration inhibiting all PM (P. mirabilis): 0.25 mg/L

CN(C)[C@@H]1C(O)=C(C(N)=O)C(=O)[C@@]2(O)C(O)=C3C(=O)c4c(O)cccc4[C@@](C)(O)[C@H]3C[C@@H]12 [Tetracycline]
CLSI %1 ([3]; Enterobacterales (36)): 5.6% | CLSI % R ([3]; Enterobacterales (36)): 44.4% | CLSI % S ([3]; Enterobacterales (36)): 50.0% | MIC50 [3, 7]: 4 µg/mL (≈ 9 µM) | MIC90 [3, 8]: > 16 µg/mL

amoxicillin-clavulanate (2:1) [A/C]
% susceptible by CLSI M100 criteria (E. coli [4]; CTX-M a): 57.6% | MIC50 (E. coli [4]; CTX-M a): 8 µg/mL | MIC90 (E. coli [4]; CTX-M a): 16 µg/mL | % susceptible by CLSI M100 criteria (E. coli [4]; ESBL (360)): 47.2% | MIC50 (E. coli [4]; ESBL (360)): 16 µg/mL | MIC90 (E. coli [4]; ESBL (360)): 32 µg/mL | % susceptible by CLSI M100 criteria (E. coli [4]; Non-ESBL (2035)): 86.6% | MIC50 (E. coli [4]; Non-ESBL (2035)): 4 µg/mL | MIC90 (E. coli [4]; Non-ESBL (2035)): 16 µg/mL | CLSI %1 ([3]; Enterobacterales (36)): 11.1% | CLSI % R ([3]; Enterobacterales (36)): 86.1% | CLSI % S ([3]; Enterobacterales (36)): 2.8% | MIC50 ([3]; Enterobacterales (36)): >32 μ/ml | MIC90 ([3]; Enterobacterales (36)): >32 μ/ml | MIC50 (Enterobacterales (ENT)): 4000 µg/mL | MIC90 (Enterobacterales (ENT)): 32000 µg/mL | % susceptible; CLSI (Enterobacterales (ENT); cefuroxime: oral breakpoint): (76.1) % | MIC50 (P. mirabilis; P. mirabilis (235)): 1/1 mg/mL | MIC90 (P. mirabilis; P. mirabilis (235)): 1/1 mg/mL | % susceptible; CLSI (P. mirabilis; P. mirabilis (235)): (96.6) % | % susceptible; CLSI (P. mirabilis; P. mirabilis (235), listed as amoxicillin/clavulanate): 96.6% | MIC50 (E. coli [5]): 4000 µg/mL | MIC90 (E. coli [5]): 16000 µg/mL | % susceptible; CLSI (E. coli [5]; cefuroxime: oral breakpoint): (80.8) % | MIC50 (K. pneumoniae): 2000 µg/mL | MIC90 (K. pneumoniae): 16000 µg/mL | % susceptible; CLSI (K. pneumoniae; cefuroxime: oral breakpoint): (86.7) %

CO/N=C(\C(=O)N[C@@H]1C(=O)N2C(C(=O)[O-])=C(C[N+]3(C)CCCC3)CS[C@H]12)c1csc(N)n1 [Cefepime]
MIC50 [3]: 0.5 µg/mL (≈ 1.04 µM) | MIC90 [3]: 128 µg/mL (≈ 266 µM) | CLSI %1 [6]: 40.6% | CLSI % R [6]: 12.5% | CLSI % S [6]: 46.9%

C[C@H]1[C@H](NC(=O)/C(=N\OC(C)(C)C(=O)O)c2csc(N)n2)C(=O)N1S(=O)(=O)O [Aztreonam]
CLSI %1 ([3]; Enterobacterales (36)): 14.3% | CLSI % R ([3]; Enterobacterales (36)): 54.3% | CLSI % S ([3]; Enterobacterales (36)): 31.4% | MIC50 [3, 7]: > 16 µg/mL | MIC90 [3, 8]: > 16 µg/mL | CLSI %1 [6]: 31.2% | CLSI % R [6]: 50.0% | CLSI % S [6]: 18.8%

Br.C[C@@H](O)[C@H]1C(=O)N2C(C(=O)OCOC(=O)C(C)(C)C)=C(SC3CN(C4=NCCS4)C3)[C@H](C)[C@H]12 [Lot 2]
particle size distribution, 45 um< [1]: 46% | particle size distribution, 75 um< [1]: 6% | particle size distribution, 106 um< [1]: 6% | particle size distribution, 150 um< [1]: 2% | particle size distribution, 300 um< [1]: 0% | particle size distribution, <45 um [1]: 40%
